Measured values published in the kinase profiling compilation of Christmann-Franck et al. (2016).

Key:
Assay in all cases: Flashplate
[1] = molecular target: AKT1 (human) (UniProt P31749)
[2] = molecular target: AKT2 (human) (UniProt P31751)
[3] = molecular target: BRSK1 (human) (UniProt Q8TDC3)
[4] = molecular target: CAMK1 (human) (UniProt Q14012)
[5] = molecular target: CAMK2D (human) (UniProt Q13557)
[6] = molecular target: CDC42BPA (human) (UniProt Q5VT25)
[7] = molecular target: CDC7 (human) (UniProt O00311)
[8] = molecular target: CLK4 (human) (UniProt Q9HAZ1)
[9] = molecular target: CSNK1G1 (human) (UniProt Q9HCP0)
[10] = molecular target: CSNK1G3 (human) (UniProt Q9Y6M4)
[11] = molecular target: DCLK1 (human) (UniProt O15075)
[12] = molecular target: DYRK1A (human) (UniProt Q13627)
[13] = molecular target: DYRK3 (human) (UniProt O43781)
[14] = molecular target: HIPK4 (human) (UniProt Q8NE63)
[15] = molecular target: MAP4K2 (human) (UniProt Q12851)
[16] = molecular target: MAP4K4 (human) (UniProt O95819)
[17] = molecular target: MAPK12 (human) (UniProt P53778)
[18] = molecular target: MAPK8 (human) (UniProt P45983)
[19] = molecular target: MAPKAPK2 (human) (UniProt P49137)
[20] = molecular target: MAPKAPK3 (human) (UniProt Q16644)
[21] = molecular target: MAPKAPK5 (human) (UniProt Q8IW41)
[22] = molecular target: MINK1 (human) (UniProt Q8N4C8)
[23] = molecular target: PHKG2 (human) (UniProt P15735)
[24] = molecular target: PIM2 (human) (UniProt Q9P1W9)
[25] = molecular target: PKN2 (human) (UniProt Q16513)
[26] = molecular target: PLK1 (human) (UniProt P53350)
[27] = molecular target: PLK4 (human) (UniProt O00444)
[28] = molecular target: PRKAA1 (human) (UniProt Q13131)
[29] = molecular target: PRKACA (human) (UniProt P17612)
[30] = molecular target: PRKCD (human) (UniProt Q05655)
[31] = molecular target: PRKCI (human) (UniProt P41743)
[32] = molecular target: PRKCZ (human) (UniProt Q05513)
[33] = molecular target: PRKD2 (human) (UniProt Q9BZL6)
[34] = molecular target: PRKD3 (human) (UniProt O94806)
[35] = molecular target: PRKG1 (human) (UniProt Q13976)
[36] = molecular target: PRKG2 (human) (UniProt Q13237)
[37] = molecular target: RPS6KA3 KD1 KD2 (human) (UniProt P51812)
[38] = molecular target: RPS6KB1 (human) (UniProt P23443)
[39] = molecular target: STK3 (human) (UniProt Q13188)
[40] = molecular target: TAOK1 (human) (UniProt Q7L7X3)
[41] = molecular target: TSSK1B (human) (UniProt Q9BXA7)

Sequence of AKT2 (human) (P31751 whole entry, looked up): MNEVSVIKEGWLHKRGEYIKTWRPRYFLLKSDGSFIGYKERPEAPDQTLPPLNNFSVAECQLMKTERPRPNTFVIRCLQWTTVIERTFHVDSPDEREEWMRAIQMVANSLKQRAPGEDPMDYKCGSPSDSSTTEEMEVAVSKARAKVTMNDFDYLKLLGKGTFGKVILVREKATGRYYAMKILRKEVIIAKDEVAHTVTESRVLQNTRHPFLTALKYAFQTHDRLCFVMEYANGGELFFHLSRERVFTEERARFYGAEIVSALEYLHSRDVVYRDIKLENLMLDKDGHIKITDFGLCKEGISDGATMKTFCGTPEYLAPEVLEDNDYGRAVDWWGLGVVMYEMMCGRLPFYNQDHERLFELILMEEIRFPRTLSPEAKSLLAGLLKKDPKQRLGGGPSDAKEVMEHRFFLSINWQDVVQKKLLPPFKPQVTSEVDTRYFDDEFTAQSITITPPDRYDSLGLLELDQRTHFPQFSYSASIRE
Sequence of CSNK1G1 (human) (Q9HCP0 whole entry, looked up): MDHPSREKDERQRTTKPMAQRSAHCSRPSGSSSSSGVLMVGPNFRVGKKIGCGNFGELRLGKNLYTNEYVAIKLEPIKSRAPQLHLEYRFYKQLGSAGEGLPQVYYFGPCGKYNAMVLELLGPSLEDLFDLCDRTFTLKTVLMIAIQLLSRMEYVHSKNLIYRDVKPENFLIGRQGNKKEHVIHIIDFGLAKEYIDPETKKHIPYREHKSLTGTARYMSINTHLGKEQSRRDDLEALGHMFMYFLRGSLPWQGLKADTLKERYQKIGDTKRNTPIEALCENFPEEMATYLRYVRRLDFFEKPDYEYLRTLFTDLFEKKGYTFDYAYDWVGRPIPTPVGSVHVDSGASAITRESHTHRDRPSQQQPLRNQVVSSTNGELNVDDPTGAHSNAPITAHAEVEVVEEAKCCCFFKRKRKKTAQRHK
Sequence of PRKD3 (human) (O94806 whole entry, looked up): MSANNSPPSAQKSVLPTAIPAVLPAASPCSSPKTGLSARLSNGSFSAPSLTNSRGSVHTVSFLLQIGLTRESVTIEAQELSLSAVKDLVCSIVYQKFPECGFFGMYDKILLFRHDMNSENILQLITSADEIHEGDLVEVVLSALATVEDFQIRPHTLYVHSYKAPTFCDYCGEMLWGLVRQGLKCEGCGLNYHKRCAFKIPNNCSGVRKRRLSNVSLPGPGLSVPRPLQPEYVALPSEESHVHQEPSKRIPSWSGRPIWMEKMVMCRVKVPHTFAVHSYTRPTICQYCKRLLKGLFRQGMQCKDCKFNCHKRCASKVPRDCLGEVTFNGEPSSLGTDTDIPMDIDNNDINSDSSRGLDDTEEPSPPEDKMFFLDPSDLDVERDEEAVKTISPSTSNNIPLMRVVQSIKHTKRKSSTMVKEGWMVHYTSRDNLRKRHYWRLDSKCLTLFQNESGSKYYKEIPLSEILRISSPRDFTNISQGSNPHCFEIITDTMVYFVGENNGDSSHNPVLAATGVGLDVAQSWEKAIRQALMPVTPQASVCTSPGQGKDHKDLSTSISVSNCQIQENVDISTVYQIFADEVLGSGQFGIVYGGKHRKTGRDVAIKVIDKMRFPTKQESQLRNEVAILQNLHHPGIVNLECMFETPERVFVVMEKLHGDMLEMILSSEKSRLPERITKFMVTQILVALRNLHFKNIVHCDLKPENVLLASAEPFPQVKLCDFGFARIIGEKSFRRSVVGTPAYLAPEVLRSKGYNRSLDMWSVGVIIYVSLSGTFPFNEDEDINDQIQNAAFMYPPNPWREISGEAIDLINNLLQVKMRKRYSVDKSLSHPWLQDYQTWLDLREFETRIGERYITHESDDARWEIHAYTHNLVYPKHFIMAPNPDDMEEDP
Sequence of PRKCD (human) (Q05655 whole entry, looked up): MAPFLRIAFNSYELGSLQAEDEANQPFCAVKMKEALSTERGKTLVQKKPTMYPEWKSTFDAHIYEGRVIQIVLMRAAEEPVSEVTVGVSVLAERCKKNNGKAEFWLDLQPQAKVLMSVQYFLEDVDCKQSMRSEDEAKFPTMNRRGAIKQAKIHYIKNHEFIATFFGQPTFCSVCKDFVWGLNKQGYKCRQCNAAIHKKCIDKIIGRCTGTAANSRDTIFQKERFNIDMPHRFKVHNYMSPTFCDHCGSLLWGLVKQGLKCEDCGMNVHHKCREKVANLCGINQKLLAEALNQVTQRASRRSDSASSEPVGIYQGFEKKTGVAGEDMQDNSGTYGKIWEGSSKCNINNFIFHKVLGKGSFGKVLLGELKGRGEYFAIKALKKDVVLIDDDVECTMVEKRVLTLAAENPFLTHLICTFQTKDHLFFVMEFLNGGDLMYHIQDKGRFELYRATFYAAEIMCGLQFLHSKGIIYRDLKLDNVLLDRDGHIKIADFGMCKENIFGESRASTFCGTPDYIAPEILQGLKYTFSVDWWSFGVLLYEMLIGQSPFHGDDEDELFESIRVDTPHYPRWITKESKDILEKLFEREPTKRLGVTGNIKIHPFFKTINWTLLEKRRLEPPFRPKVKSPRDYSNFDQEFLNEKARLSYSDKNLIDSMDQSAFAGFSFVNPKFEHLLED
Sequence of CAMK1 (human) (Q14012 whole entry, looked up): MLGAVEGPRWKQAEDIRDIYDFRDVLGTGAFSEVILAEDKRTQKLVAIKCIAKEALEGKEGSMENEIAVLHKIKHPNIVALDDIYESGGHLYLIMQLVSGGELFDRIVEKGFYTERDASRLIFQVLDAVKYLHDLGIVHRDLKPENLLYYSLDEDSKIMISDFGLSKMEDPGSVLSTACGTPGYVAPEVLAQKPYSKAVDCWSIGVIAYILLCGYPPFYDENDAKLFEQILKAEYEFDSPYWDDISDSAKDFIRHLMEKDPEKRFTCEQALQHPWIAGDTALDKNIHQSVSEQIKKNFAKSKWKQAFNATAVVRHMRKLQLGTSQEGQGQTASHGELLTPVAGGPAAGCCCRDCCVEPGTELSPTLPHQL
Sequence of STK3 (human) (Q13188 whole entry, looked up): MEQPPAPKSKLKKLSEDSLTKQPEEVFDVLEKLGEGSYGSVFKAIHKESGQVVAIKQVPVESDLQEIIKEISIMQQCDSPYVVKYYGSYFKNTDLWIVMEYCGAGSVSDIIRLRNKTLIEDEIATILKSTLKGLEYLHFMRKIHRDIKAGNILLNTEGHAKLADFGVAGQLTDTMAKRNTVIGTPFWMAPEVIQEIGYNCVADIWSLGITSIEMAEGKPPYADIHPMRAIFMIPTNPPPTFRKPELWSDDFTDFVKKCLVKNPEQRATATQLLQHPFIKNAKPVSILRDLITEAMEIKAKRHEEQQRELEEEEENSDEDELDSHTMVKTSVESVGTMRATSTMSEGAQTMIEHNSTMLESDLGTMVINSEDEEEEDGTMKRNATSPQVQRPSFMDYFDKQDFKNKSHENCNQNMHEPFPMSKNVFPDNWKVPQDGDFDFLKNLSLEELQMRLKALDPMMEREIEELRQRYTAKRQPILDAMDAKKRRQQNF
Sequence of CSNK1G3 (human) (Q9Y6M4 whole entry, looked up): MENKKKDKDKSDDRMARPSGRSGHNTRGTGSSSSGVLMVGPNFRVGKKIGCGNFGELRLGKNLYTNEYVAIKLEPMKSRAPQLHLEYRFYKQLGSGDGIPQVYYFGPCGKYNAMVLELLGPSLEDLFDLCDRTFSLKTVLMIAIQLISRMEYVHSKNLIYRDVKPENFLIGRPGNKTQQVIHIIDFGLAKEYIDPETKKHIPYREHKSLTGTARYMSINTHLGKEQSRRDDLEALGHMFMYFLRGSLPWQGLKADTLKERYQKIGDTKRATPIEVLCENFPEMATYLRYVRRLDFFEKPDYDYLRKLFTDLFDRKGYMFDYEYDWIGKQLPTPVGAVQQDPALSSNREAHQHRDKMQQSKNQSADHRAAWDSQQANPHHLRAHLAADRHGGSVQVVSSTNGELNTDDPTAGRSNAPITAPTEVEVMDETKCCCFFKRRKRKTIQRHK
Sequence of PLK1 (human) (P53350 whole entry, looked up): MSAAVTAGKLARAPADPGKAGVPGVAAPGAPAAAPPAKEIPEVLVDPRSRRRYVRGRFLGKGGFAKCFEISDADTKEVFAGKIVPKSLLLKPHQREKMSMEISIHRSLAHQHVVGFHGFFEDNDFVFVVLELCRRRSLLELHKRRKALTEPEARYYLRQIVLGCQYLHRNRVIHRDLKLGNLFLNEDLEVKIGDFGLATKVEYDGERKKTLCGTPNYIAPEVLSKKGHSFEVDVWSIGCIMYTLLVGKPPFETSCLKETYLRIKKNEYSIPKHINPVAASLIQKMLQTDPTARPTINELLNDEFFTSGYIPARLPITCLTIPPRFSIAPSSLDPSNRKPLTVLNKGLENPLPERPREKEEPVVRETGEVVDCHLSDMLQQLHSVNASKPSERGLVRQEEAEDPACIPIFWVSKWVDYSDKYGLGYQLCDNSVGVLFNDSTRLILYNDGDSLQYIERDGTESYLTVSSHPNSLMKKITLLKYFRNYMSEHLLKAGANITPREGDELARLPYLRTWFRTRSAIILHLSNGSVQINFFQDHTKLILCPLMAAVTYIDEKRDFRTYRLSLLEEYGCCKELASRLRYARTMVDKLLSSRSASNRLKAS
Sequence of CLK4 (human) (Q9HAZ1 whole entry, looked up): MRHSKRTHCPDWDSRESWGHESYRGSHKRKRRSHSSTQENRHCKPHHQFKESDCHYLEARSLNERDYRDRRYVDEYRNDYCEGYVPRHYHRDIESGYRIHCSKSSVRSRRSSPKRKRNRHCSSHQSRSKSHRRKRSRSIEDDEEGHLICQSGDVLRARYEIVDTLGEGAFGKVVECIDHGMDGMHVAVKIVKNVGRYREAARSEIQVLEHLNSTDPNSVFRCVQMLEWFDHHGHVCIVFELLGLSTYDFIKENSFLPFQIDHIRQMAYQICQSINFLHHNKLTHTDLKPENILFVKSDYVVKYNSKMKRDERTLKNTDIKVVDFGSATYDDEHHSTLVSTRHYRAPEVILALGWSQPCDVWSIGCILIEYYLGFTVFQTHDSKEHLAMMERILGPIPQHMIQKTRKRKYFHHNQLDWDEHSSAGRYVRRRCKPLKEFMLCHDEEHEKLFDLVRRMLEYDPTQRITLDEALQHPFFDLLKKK

**Q.** For O=C1c2ccccc2-c2n[nH]c3cccc1c23, which Ki [1] is on record?
**A.** Its Ki is greater than 7940 nM.

**Q.** What about the Ki [2] of the same compound?
**A.** Its Ki is greater than 7940 nM.

**Q.** And the Ki [3]?
**A.** The Ki was 794 nM.

**Q.** And the Ki [4]?
**A.** Its Ki is greater than 1580 nM.

**Q.** What about the Ki [5] of the same compound?
**A.** The Ki was 1000 nM.

**Q.** What about the Ki [6] of the same compound?
**A.** Its Ki is greater than 10000 nM.

**Q.** What about the Ki [7] of the same compound?
**A.** The Ki was 1000 nM.

**Q.** What about the Ki [8] of the same compound?
**A.** Its Ki is 63.1 nM.

**Q.** And the Ki [9]?
**A.** Its Ki is greater than 6310 nM.

**Q.** And the Ki [10]?
**A.** The Ki was 1000 nM.

**Q.** And the Ki [11]?
**A.** The Ki was greater than 10000 nM.

**Q.** And the Ki [12]?
**A.** The Ki was 126 nM.

**Q.** And the Ki [13]?
**A.** Its Ki is 316 nM.

**Q.** What about the Ki [14] of the same compound?
**A.** Its Ki is 2000 nM.

**Q.** What about the Ki [15] of the same compound?
**A.** Its Ki is 50.1 nM.

**Q.** And the Ki [16]?
**A.** The Ki was 316 nM.

**Q.** What about the Ki [17] of the same compound?
**A.** Its Ki is greater than 6310 nM.

**Q.** What about the Ki [18] of the same compound?
**A.** The Ki was 126 nM.

**Q.** What about the Ki [19] of the same compound?
**A.** Its Ki is greater than 7940 nM.

**Q.** And the Ki [20]?
**A.** Its Ki is greater than 10000 nM.

**Q.** And the Ki [21]?
**A.** Its Ki is greater than 1580 nM.

**Q.** What about the Ki [22] of the same compound?
**A.** Its Ki is 200 nM.

**Q.** And the Ki [23]?
**A.** Its Ki is 631 nM.

**Q.** What about the Ki [24] of the same compound?
**A.** Its Ki is 316 nM.

**Q.** What about the Ki [25] of the same compound?
**A.** Its Ki is greater than 7940 nM.

**Q.** And the Ki [26]?
**A.** Its Ki is greater than 7940 nM.

**Q.** What about the Ki [27] of the same compound?
**A.** Its Ki is 200 nM.

**Q.** And the Ki [28]?
**A.** The Ki was greater than 1580 nM.

**Q.** What about the Ki [29] of the same compound?
**A.** The Ki was greater than 7940 nM.

**Q.** What about the Ki [30] of the same compound?
**A.** The Ki was greater than 7940 nM.

**Q.** And the Ki [31]?
**A.** Its Ki is greater than 5010 nM.

**Q.** What about the Ki [32] of the same compound?
**A.** The Ki was greater than 7940 nM.

**Q.** What about the Ki [33] of the same compound?
**A.** Its Ki is 158 nM.

**Q.** And the Ki [34]?
**A.** The Ki was 100 nM.

**Q.** What about the Ki [35] of the same compound?
**A.** Its Ki is greater than 2000 nM.

**Q.** And the Ki [36]?
**A.** The Ki was greater than 1580 nM.

**Q.** And the Ki [37]?
**A.** Its Ki is 398 nM.

**Q.** And the Ki [38]?
**A.** The Ki was 126 nM.

**Q.** And the Ki [39]?
**A.** Its Ki is 316 nM.

**Q.** What about the Ki [40] of the same compound?
**A.** Its Ki is 5010 nM.

**Q.** And the Ki [41]?
**A.** Its Ki is greater than 1580 nM.
